These results are taken from ChEMBL document CHEMBL3632587, “Discovery of a Specific Inhibitor of Pyomelanin Synthesis in Legionella pneumophila” (J Med Chem, 2015).

For orientation: Ki means the dissociation constant of the complex between target and ligand, obtained from inhibition or displacement. The Kd is the constant that tells how readily two partners part at equilibrium.

Where “and” joins values, the source holds several entries; their conditions need not be identical. Equal values may be shown once. Calls of active or inactive are those of the source. The rule behind the calls is not given here.

The subject of test [1] is Legionella pneumophila. In words: Inhibition of Legionella pneumophila recombinant PAH assessed as residual activity by […] assay using 1 mM L-Phe as substrate and 200 uM BH4 as cofactor. A general note: In DSF a fluorescence change marks the thermal transition of the protein.
The nature of test [2]: Non-competitive inhibition of Legionella pneumophila recombinant PAH for enzyme-substrate complex by […] assay using BH4 as cofactor.
A short description of test [3]: Uncompetitive inhibition of Legionella pneumophila recombinant PAH for free enzyme by […] assay using L-Phe as substrate.
The test system of test [4] is Legionella pneumophila. The test can be described thus: Antibacterial activity against Legionella pneumophila 130b assessed as bacterial growth at 0.1 to 40 uM after 24 hrs by spectrometer. It counts as functional, organism-based.
The nature of test [5]: Non-competitive inhibition of Legionella pneumophila recombinant PAH for free enzyme by […] assay using BH4 as cofactor.
The test system of test [6] is Legionella pneumophila. In words: Inhibition of PAH in Legionella pneumophila 130b lysate assessed as residual activity at 10 uM by direct detect spectrometer.
Test [7] in a line: Uncompetitive inhibition of Legionella pneumophila recombinant PAH for enzyme-substrate complex by […] assay using L-Phe as substrate.
Test [8] has as its system Escherichia coli. The test can be described thus: Antibacterial activity against Escherichia coli XL-10 Gold at <= 100 uM after 21 hrs. It counts as functional, organism-based.
The subject of test [9] is Escherichia coli. The test can be described thus: Antibacterial activity against Escherichia coli XL-10 Gold assessed as slower growth rate at > 40 uM after 21 hrs. It counts as functional, organism-based.
Test [10] is described as follows: Mixed inhibition of Legionella pneumophila recombinant PAH for free enzyme by […] assay using L-Phe as substrate.
Test [11] relates to Legionella pneumophila. The test can be described thus: Antibacterial activity against Legionella pneumophila 130b assessed as bacterial growth at <= 10 uM after 24 hrs by spectrometer. It counts as functional, organism-based.
Test [12] addresses T1, Phenylalanine-4-hydroxylase (Homo sapiens) (UniProt P00439).
T1 sequence (whole entry): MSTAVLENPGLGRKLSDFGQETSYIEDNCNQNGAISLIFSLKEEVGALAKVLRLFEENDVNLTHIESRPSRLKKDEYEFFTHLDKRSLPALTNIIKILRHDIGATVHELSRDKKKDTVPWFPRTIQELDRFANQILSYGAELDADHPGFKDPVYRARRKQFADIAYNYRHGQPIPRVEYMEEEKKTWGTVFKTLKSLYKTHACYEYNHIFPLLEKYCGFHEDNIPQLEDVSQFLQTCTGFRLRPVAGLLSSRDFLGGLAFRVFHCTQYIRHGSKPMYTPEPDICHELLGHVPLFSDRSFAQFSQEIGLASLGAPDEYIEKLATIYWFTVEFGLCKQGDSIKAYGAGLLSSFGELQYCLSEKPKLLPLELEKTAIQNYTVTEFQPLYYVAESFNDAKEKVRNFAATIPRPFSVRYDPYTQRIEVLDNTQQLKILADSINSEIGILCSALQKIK
The test can be described thus: Inhibition of human PAH by […] assay using L-Phe as substrate and 75 uM BH4 as cofactor.

Test [13] is described as follows: Mixed inhibition of Legionella pneumophila recombinant PAH for enzyme-substrate complex by […] assay method using L-Phe as substrate.
The test system of test [14] is Legionella pneumophila. In words: Antibacterial activity against Legionella pneumophila 130b assessed as bacterial growth at 40 uM after 24 hrs by spectrometer. In kind it is functional, organism-based.
For test [15], the system named is Legionella pneumophila. The test can be described thus: Antibacterial activity against Legionella pneumophila 130b assessed as bacterial growth at 20 uM after 24 hrs by spectrometer. It counts as functional, organism-based.
Test [16] is described as follows: Binding affinity to Legionella pneumophila recombinant PAH by DSF assay.

`c1ccc(-c2cc(N3CCCCC3)c3ccccc3n2)nc1`: the Activity in the test with Legionella pneumophila [1] was 3.1%.
The same measure, in the same setting: for `S=C(NNC(=S)Nc1ccccc1)Nc1ccccc1` the value was 1.9%; for `CN1CCN(c2cc(-c3ccccn3)nc3ccccc23)CC1`, 2.6%; for `O=C(C1=C(O)C(=O)N(Cc2ccco2)C1c1ccc(Oc2ccccc2)cc1)c1cccs1` (configuration not stated), 1.53%.
On the same count and under the same terms, to `O=c1cc(CO)oc(C(Nc2nccs2)c2ccc(F)cc2)c1O` (configuration not stated) belongs 0.1%; to `CC(C)(C)c1ccc(C2C(C(=O)c3cccs3)=C(O)C(=O)N2c2nncs2)cc1` (configuration not stated), 4.2%.
Still for that read-out and setting: for `c1ccc(-c2cc(N3CCOCC3)c3ccccc3n2)nc1` the value was 4.9% and 2.6%; for `O=C(C1=C(O)C(=O)N(c2nncs2)C1c1ccc(Cl)cc1)c1cccs1` (configuration not stated), 2.23%; for `CC1(C)CC(=O)C2=C(C1)NC1=C(C(=O)CC(C)(C)C1)C2c1cnc[nH]1`, 3.2%.
For the compound `Cc1nccn1C1c2ccccc2CSc2sccc21` (configuration not stated), the Activity in the test on Legionella pneumophila [1] was 2.2%.
Regarding `O=C(O)c1cc([N+](=O)[O-])cc2c1-c1ccc([N+](=O)[O-])cc1/C2=N/O`, the Ki in test [2] stood at 1000 nM; in [3], 20000 nM; in test [5] it was 1000 nM; in test [7], 370 nM. The result with Legionella pneumophila [4] was Active. Further, the Activity is 39% with Legionella pneumophila [6] and 0.1% with Legionella pneumophila [1].
As for `Oc1cc(C(F)(F)F)nn1-c1nc2ccccc2s1`, the Activity in the test with Legionella pneumophila [1] amounted to 1.4%.
For the compound `c1ccc2c(c1)CSc1sccc1C2n1ccnc1` (configuration not stated), the outcome with Escherichia coli [8] and in the test with Legionella pneumophila [11] was inactive. Further, the Ki in test [2] turned out to be 1700 nM; in test [5], 2000 nM; in test [10] it was 2200 nM; in test [13] it was 4100 nM. The result in the test on Escherichia coli [9], in the test on Legionella pneumophila [14] and in the test on Legionella pneumophila [15] was Active. The Activity in the test on Legionella pneumophila [6] was 36%; with Legionella pneumophila [1], 0.38%. For the same compound, in test [12], the inhibition result is “Active”. Besides, the Kd in test [16] worked out at 1100 nM.
Turning to `c1ccc2c(c1)CSc1ccccc1C2n1ccnc1` (configuration not stated), the Activity in the test with Legionella pneumophila [1] was 1.6%.
